System: anesthetized dogs
Assay: Cardiovascular and respiratory function in anesthetized dogs (safety pharmacology)
Format: in vivo
Settings: anesthetized Beagle dogs; three ascending doses 400, 800, and 1,200 mg/kg/day; infusion through the jugular vein; compared to the vehicle control group
Experimental: The pharmacological properties of 3-(3,4-dimethoxy-phenyl)-3-(1-oxo-1,3-dihydro-isoindol-2-yl)-propionamide, including activity comparisons with thalidomide, are characterized in in vitro studies. Studies examine the effects of 3-(3,4-dimethoxy-phenyl)-3-(1-oxo-1,3-dihydro-isoindol-2-yl)-propionamide on the production of various cytokines. In addition, a safety pharmacology study of 3-(3,4-dimethoxy-phenyl)-3-(1-oxo-1,3-dihydro-isoindol-2-yl)-propionamide is conducted in dogs and the effects of the compound on ECG parameters are examined further as part of three repeat-dose toxicity studies in primates.
The effects of 3-(3,4-dimethoxy-phenyl)-3-(l-oxo-1,3-dihydro-isoindol-2-yl)-propionamide on cardiovascular and respiratory function are investigated in anesthetized dogs. Two groups of Beagle dogs (2/sex/group) are used. One group receives three doses of vehicle only and the other receives three ascending doses of 3-(3,4-dimethoxy-phenyl)-3-(1-oxo-1,3-dihydro-isoindol-2-yl)-propionamide (400, 800, and 1,200 mg/kg/day). In all cases, doses of 3-(3,4-dimethoxy-phenyl)-3-(1-oxo-1,3-dihydro-isoindol-2-yl)-propionamide or vehicle are successively administered via infusion through the jugular vein separated by intervals of at least 30 minutes. […]

COc1ccc(C(CC(N)=O)N2Cc3ccccc3C2=O)cc1OC (stereo not shown) [3-(3,4-dimethoxy-phenyl)-3-(1-oxo-1,3-dihydro-isoindol-2-yl)-propionamide]
cardiovascular and respiratory changes: minimal

— patent US20060165649A1, “Methods of using and compositions comprising selective cytokine inhibitory drugs for the treatment and management of myeloproliferative diseases” (priority 2002, published 2006)
